This note sets out measurements from ChEMBL document CHEMBL1201862, “PubChem BioAssay data set” (2004).

The structures appear in SMILES notation. Calls of active or inactive are those of the source.

Assay [1] is described as follows: Luminescence Cell-Based Dose Confirmation HTS to Identify Activators of 5'UTR Stem-Loop Driven Alpha-Synuclein mRNA Translation in H4 Neuroglioblastoma Cells. [Related pubchem assays: 1829 (Project Summary), 1814 (Primary HTS)]. It is filed as functional.
In a further assay the test system is H4. Nature of the assay: Luminescence Cell-Based Dose Response HTS to Identify Activators of 5'UTR Stem-Loop Driven Prion Protein mRNA Translation in H4 Neuroglioblastoma Cells. [Related pubchem assays: 1829 (Project Summary), 1814 (Primary HTS)]. It is filed as functional. To be noted: Homo sapiens.
Assay [2] can be described thus: Luminescence Cell-Based Dose Response HTS to Identify Activators of Luciferase Translation or Activity in H4 […] Cells. [Related pubchem assays: 1829 (Project Summary), 1814 (Primary HTS)]. It is filed as functional.
The target in the next assay is Galanin receptor type 2 (Homo sapiens, UniProt O43603). The experiment in a line: Dose Response cell-based high-throughput screening assay to identify antagonists of galanin receptor 2 (GALR2). [Related pubchem assays: 828, 866 ]. The class given is functional.
Chain of Galanin receptor type 2 (O43603 whole entry): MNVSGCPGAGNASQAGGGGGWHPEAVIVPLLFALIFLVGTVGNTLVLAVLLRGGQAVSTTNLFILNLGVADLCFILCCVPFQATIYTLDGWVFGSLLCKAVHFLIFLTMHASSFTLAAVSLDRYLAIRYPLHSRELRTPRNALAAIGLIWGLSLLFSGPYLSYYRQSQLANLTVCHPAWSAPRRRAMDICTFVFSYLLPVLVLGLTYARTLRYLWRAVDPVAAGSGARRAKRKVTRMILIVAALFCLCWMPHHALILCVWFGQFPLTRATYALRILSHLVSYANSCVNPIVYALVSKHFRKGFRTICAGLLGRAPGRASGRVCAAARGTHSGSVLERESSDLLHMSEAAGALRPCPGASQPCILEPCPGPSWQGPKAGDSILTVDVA
The nature of assay [3]: DRD fibroblast viability loss – cell-based, non-viral oncogenic, luminescence, dose response (AID 1934). It is filed as functional. To be noted: Homo sapiens.
The test system of assay [4] is BJ. The experiment in a line: BJ-TERT fibroblast viability loss – cell-based, RAS-independent, luminescence, dose response (AID 1933). The class given is functional. To be noted: Homo sapiens.
A short description of assay [5]: viability of PTEN-deleted HCT116 cells – cell-based, HCT116 PTEN knockout, dose response (AID 1047).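 Also: HCT116 colon tumor cells with PTEN knocked out; cells exposed to compound for 60 hours before readout; potency for loss of cell viability measured by luminescence.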 It is filed as functional.
A short description of assay [6]: Luminescence Cell-Based Dose Confirmation HTS to Identify Inhibitors of Polyadenylation. It is filed as functional.
The nature of assay [7]: viability of HCT116 lacking mutant beta-catenin – cell-based, human colon tumor, dose response (AID 1045).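 Also: HCT116 colon tumor cells with beta catenin knocked out; cells exposed to compound for 60 hours.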 The class given is functional.
Assay [8] deals with BJ. Nature of the assay: cells. To be noted: Homo sapiens. The class given is functional, cell-based.
The next assay deals with INS1. The experiment in a line: INS-1E survival protection against cytokine death – cell-based, luminescence, retest, dose response (AID 449756).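 Also: cell death triggered by IL-1 beta plus TNF-alpha plus IFN-gamma mixture; protective hits raise ATP signal compared with cytokine alone wells.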 It is filed as functional. To be noted: Rattus norvegicus.
The test system of assay [9] is BJ. The experiment in a line: BJ-TERT-LT-ST fibroblast viability loss – cell-based, RAS-independent, luminescence, dose response (AID 1935).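 Also: BJ fibroblasts immortalized with TERT plus LT and ST oncogenes.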 To be noted: Homo sapiens. The class given is functional.
Assay [10] concerns the target Transitional endoplasmic reticulum ATPase (Homo sapiens, UniProt P55072). Nature of the assay: Luminescence dose response biochemical high throughput screening assay for inhibitors of the p97 ATPase: synthesized compounds. [Related pubchem assays: 1481, 1517 ].
Assay [11] addresses Transitional endoplasmic reticulum ATPase (Homo sapiens, UniProt P55072, C522A). The experiment in a line: Luminescence counterscreen assay for p97 inhibitors: dose response biochemical high throughput screening assay to identify inhibitors of the C522A mutant p97 ATPase: synthesized compounds. [Related pubchem assays: 1481, 1517, 1551 ]. In general terms: The purpose of a counterscreen is to sort out artefacts and off-target activity.

Assay [12] concerns the target Protein-tyrosine kinase 2-beta (Homo sapiens, UniProt Q14289).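 Also: potency of inhibitors of PYK2 kinase phosphorylation of poly-GT substrate.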
The nature of assay [13]: Vero E6 cell cytotoxicity, dose response, cytotoxicity control for non-replicating M. tuberculosis project, secondary assay (AID 492998). It is filed as functional, VeroE6. To be noted: Vero C1008.
The test system of the next assay is HeLa. The experiment in a line: Cytotoxicity counterscreen assay for transcriptional activators of heat shock protein 70 (Hsp70). [Related pubchem assays: 1203, 1252 ]. It is filed as functional. To be noted: Homo sapiens.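 Also: cells exposed to compound for 16 hours before readout.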
A further assay in a line: cells. The class given is functional.
Assay [14] addresses T1, Neuropeptide Y receptor type 1 (Homo sapiens, UniProt P25929). Nature of the assay: IC50 of human NPY-Y1 blockers – cell-based, dose response (AID 1277). It is filed as functional.
Assay [15] deals with T2, Neuropeptide Y receptor type 2 (Homo sapiens, UniProt P49146). Nature of the assay: IC50 for human NPY-Y2 blockade – cell-based, counter-screen for NPY-Y1 antagonist project, dose response (AID 1278). The class given is functional.
T2 sequence (P49146 whole entry): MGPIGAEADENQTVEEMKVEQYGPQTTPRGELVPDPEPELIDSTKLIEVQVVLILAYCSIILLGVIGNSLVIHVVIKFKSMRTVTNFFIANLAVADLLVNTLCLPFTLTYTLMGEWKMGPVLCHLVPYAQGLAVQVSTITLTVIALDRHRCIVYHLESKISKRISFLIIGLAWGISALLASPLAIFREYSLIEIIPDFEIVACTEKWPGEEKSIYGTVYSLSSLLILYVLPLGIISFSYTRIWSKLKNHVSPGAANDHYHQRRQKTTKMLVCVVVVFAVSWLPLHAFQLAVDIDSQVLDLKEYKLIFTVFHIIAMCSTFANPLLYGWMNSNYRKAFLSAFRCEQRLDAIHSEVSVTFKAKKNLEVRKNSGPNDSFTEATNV
Assay [16] addresses T1, Neuropeptide Y receptor type 1. The class given is functional.
Assay [17] addresses T2, Neuropeptide Y receptor type 2. It is filed as functional, cell-based.
A further assay addresses T3, Estrogen receptor (Homo sapiens, UniProt P03372).
T3 sequence (P03372 whole entry): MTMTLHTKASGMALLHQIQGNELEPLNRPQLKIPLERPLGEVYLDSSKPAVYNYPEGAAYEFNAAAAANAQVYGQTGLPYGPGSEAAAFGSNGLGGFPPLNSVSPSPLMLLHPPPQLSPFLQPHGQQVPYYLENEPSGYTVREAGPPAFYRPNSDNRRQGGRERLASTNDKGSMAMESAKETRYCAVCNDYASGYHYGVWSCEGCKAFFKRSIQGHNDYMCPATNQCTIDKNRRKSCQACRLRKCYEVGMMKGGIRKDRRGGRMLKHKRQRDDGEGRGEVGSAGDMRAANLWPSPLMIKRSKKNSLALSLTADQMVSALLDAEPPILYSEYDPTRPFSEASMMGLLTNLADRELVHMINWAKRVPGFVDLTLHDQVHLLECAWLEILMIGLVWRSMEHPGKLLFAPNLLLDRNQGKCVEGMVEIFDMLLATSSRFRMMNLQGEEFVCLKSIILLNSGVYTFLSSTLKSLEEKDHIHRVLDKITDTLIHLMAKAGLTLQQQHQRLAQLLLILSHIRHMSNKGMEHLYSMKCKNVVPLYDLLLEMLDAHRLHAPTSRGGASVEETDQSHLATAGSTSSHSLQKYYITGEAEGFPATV
Nature of the assay: ERα coactivator recruitment enhancers – biochemical, TR-FRET, ERα LBD, dose response (AID 737). In general terms: TR-FRET usually uses a lanthanide donor and a delayed reading to cut background.

The target in assay [18] is Lytic switch protein BZLF1 (Epstein-Barr virus (strain B95-8) (HHV-4) (Human herpesvirus 4), UniProt P03206). Nature of the assay: inhibition of BZLF1 ZTA DNA binding – biochemical, fluorescence polarization, Epstein-Barr virus, 1536-well, counter-screen for EBNA-1 inhibitor project, dose response (AID 2377).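 Also: fluorescence polarization of Cy5-labelled ZRE DNA probe bound by purified Zta.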 The arrangement: species or system human gammaherpesvirus 4.
Chain of Lytic switch protein BZLF1 (P03206 whole entry): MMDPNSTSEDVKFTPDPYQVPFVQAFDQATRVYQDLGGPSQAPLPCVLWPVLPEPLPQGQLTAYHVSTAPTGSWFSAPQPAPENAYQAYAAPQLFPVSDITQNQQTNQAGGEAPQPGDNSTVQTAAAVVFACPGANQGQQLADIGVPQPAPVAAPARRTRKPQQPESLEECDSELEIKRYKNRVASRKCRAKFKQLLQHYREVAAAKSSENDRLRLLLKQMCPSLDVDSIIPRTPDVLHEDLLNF
The target of assay [19] is Epstein-Barr nuclear antigen 1 (Epstein-Barr virus (strain B95-8) (HHV-4) (Human herpesvirus 4), UniProt P03211). Nature of the assay: inhibition of EBV nuclear antigen 1 DNA binding – biochemical, fluorescence polarization, 1536-well, dose response (AID 2381).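 Also: fluorescence polarization of a Cy5 DNA probe bound by EBNA-1 protein.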 The arrangement: species or system human gammaherpesvirus 4. (In general: In fluorescence polarisation assays a small probe gives low polarisation when free and higher when bound to something large.)
Chain of Epstein-Barr nuclear antigen 1 (P03211 whole entry): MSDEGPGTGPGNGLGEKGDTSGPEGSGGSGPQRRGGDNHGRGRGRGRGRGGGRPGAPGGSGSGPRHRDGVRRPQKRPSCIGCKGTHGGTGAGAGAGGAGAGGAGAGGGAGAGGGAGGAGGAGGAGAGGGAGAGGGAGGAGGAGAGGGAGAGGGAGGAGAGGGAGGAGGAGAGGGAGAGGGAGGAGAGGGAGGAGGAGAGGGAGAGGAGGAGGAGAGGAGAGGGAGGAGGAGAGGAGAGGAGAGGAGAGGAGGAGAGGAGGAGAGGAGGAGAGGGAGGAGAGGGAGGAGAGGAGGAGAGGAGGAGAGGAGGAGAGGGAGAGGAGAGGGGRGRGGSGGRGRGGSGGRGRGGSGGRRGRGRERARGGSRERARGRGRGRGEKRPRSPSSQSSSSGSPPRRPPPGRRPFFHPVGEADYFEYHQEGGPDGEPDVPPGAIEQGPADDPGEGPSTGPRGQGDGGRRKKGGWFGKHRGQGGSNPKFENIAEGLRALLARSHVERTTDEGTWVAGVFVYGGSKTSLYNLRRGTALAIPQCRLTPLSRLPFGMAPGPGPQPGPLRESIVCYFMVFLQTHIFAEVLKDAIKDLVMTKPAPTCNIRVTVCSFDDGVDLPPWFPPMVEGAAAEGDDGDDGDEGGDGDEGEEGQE

Assay [20] is described as follows: mitochondrial function rescue without frataxin homolog – Friedreich's ataxia, plus single-dose screen, dose response (AID 1465).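 Also: yeast depleted of Yfh1p frataxin homolog grown on glycerol needing respiration; WST-1 tetrazolium dye reduction as measure of cellular dehydrogenase metabolic activity.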 The class given is functional.
A short description of assay [21]: M. tuberculosis H37Rv growth inhibitors, H37Rv strain (AID 1626). It is filed as functional.
Assay [22] concerns the target T4, Mannose-6-phosphate isomerase (Homo sapiens, UniProt P34949).
T4 sequence (P34949 whole entry): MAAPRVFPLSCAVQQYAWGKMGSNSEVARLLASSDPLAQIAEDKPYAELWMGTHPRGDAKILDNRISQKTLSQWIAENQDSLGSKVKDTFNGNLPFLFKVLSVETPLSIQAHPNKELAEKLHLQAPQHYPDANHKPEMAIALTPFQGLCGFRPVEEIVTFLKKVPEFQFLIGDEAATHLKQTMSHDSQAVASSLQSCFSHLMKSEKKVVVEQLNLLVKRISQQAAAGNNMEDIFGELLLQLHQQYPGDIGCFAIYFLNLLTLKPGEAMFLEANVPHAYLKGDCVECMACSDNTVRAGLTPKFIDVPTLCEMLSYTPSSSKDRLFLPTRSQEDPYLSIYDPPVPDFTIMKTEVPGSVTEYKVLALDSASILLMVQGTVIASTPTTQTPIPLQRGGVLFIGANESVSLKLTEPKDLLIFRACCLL
The experiment in a line: MPI inhibition at elevated mannose 6-phosphate – biochemical, fluorescence intensity, high mannose 6-phosphate, primary screen (AID 1220).

For assay [23], the target named is T4, Mannose-6-phosphate isomerase. Nature of the assay: MPI enzyme activity inhibition – biochemical, fluorescence intensity, coupled assay, primary screen (AID 1209).
Assay [24] has as its target FAD-linked sulfhydryl oxidase ALR (Homo sapiens, UniProt P55789). The experiment in a line: ALR-catalysed DTT oxidation blockers – biochemical, H2O2 detection, luminescence, cherry-pick, dose response (AID 493248).
The next assay concerns the target NADPH oxidase 1 (Homo sapiens, UniProt Q9Y5S8). The class given is functional, cell-based.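 Also: Cell-based assay with luminescence read-out, IC50 derived from inhibitor dose-response curves; intracellular ROS from endogenous NOX1 in intact HT29 colon cancer cells; potency of inhibitors that lower the ROS luminescence signal.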

T1 sequence (P25929 whole entry): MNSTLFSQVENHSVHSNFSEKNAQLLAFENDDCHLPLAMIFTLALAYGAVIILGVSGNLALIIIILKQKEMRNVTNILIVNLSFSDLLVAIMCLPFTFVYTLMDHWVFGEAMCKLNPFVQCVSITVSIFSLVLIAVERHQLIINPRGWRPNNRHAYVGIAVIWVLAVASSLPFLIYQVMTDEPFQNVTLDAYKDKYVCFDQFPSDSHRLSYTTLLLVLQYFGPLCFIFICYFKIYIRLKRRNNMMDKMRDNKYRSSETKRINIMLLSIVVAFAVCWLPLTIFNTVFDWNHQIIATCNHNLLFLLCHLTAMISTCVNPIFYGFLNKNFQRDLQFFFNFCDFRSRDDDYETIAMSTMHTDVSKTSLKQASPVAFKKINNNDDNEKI
Chain of Transitional endoplasmic reticulum ATPase (Homo sapiens, UniProt P55072) (P55072 whole entry): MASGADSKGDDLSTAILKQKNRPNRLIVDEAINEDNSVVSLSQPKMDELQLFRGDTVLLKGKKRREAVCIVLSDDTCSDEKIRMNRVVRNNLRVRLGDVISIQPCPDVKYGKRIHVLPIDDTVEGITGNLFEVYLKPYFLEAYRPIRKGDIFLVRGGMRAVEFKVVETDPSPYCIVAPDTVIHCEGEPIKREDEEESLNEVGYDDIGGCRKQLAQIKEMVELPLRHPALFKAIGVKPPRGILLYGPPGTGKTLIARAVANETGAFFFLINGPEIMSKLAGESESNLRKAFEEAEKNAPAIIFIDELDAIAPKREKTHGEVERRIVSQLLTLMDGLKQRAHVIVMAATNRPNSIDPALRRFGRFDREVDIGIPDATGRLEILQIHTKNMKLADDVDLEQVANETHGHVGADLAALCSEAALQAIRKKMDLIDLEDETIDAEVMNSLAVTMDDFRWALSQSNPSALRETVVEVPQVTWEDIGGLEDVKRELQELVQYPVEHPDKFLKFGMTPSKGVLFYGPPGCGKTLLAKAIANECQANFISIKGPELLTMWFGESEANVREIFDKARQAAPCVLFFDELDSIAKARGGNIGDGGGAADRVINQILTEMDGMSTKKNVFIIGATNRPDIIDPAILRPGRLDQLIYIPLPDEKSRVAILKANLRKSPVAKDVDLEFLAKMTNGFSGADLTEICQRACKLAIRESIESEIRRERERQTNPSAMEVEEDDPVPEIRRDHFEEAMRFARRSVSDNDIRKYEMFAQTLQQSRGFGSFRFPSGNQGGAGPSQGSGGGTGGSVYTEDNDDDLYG
Chain of Protein-tyrosine kinase 2-beta (Q14289 whole entry): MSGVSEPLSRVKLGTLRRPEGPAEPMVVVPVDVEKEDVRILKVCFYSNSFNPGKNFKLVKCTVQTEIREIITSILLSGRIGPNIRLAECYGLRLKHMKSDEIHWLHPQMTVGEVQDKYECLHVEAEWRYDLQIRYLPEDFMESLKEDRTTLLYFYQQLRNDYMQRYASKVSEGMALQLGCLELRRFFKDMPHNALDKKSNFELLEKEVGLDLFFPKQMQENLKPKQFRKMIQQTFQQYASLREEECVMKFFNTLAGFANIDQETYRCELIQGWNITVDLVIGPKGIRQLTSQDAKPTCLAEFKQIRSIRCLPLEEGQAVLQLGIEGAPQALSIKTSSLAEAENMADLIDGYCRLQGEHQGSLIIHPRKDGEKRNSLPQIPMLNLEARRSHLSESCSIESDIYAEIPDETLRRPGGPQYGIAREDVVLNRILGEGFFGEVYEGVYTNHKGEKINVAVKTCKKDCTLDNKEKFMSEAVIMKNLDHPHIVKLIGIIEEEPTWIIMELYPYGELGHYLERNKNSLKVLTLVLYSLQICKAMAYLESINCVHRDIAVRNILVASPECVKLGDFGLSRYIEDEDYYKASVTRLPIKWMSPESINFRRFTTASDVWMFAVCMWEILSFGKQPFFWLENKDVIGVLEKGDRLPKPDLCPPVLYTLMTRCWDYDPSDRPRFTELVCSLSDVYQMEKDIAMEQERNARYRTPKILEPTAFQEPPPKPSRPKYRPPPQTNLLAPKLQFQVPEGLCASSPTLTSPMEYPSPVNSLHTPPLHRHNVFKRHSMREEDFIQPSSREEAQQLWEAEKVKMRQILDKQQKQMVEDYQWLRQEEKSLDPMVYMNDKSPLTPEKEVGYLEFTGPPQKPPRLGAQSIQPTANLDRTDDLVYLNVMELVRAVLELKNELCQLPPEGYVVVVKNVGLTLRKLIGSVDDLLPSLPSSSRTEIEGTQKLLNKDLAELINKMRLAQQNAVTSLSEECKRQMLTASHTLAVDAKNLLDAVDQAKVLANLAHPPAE
Chain of FAD-linked sulfhydryl oxidase ALR (P55789 whole entry): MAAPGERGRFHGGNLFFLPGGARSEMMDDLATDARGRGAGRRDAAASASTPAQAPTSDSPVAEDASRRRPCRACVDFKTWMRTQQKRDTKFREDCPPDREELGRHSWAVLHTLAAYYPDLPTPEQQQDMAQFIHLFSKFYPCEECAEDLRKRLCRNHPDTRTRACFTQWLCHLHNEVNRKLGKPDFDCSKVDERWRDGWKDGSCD
Chain of Transitional endoplasmic reticulum ATPase (Homo sapiens, UniProt P55072, C522A) (P55072 2-806 C522A limits assumed): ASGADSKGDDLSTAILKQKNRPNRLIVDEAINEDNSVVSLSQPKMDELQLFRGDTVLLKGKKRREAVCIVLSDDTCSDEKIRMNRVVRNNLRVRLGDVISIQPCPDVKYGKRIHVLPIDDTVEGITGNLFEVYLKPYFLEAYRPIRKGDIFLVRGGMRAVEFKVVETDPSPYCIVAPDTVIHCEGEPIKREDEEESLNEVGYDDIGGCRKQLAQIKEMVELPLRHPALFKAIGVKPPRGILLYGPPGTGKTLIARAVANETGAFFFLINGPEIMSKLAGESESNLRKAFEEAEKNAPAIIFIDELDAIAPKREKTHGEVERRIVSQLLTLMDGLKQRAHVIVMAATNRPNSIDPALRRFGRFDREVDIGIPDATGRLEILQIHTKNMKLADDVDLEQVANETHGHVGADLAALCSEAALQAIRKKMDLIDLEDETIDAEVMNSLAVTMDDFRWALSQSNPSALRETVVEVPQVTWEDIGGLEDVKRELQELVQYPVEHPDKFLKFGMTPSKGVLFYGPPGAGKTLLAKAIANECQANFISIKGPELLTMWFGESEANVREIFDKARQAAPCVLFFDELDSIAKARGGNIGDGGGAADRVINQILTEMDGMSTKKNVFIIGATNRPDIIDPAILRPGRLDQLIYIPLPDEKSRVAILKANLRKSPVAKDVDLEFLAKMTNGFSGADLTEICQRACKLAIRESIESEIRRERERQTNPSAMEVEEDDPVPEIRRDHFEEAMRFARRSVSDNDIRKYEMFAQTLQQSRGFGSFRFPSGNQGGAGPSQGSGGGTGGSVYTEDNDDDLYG

Consider `N#C/C(=C\c1cccs1)c1nc2ccccc2[nH]1`, for which the EC50 (commonly the concentration needed to bring the measured effect to its halfway point) in assay [1] is 2.67 µM (active); with H4, 15.8 µM (active); in assay [2], 26.6 µM (active). Further, on Galanin receptor type 2, the IC50 (in general, the concentration at which inhibition is half-maximal) is listed as > 42 µM (not active).

For `N#C/C(=C\c1ccc([N+](=O)[O-])o1)c1nc2ccccc2[nH]1`, the concentration giving a half-maximal response (EC50) was 5.9 µM (inconclusive) in assay [3]; 2.27 µM (inconclusive) with BJ [4]; 0.985 µM (active) in assay [5]; 3.64 µM (active) in assay [6]; 1.01 µM (active) in [7]; > 150 µM (inconclusive) with BJ [8]. In addition, the EC50 in the assay with BJ [9] was > 150 µM (inconclusive). Besides, the half-maximal activity concentration (AC50) (as a rule, the concentration at which the activity in the assay is half-maximal) in the assay on INS1 is 3.02 µM (active).

Consider `N#CC(C#N)=Cc1c2ccccc2cc2ccccc12`, for which the IC50 in assay [10] and in [11] was > 50 µM (not active) in each case.

For the compound `CCOC(=O)C1=C(c2ccccc2)OC(N)=C(C#N)C1C1CCCCC1` (stereo unspecified), the IC50 in [12] is on record as > 69.5 µM (not active).

`O=[N+]([O-])c1ccccc1C1Nc2cccc3cccc(c23)N1`: the CC50 (as a rule, the concentration giving 50% cytotoxicity) is 14.6 µM (active) in assay [13] and > 99 µM (not active) with HeLa. Besides, the IC50 in the assay “cells” was 27.2 µM (active).

`Cc1ccc(COC(=O)c2nn(-c3ccccc3)nc2N)cc1`: the IC50 in [14] is recorded as 12 µM (not active); in assay [15], 10.6 µM (not active).

Turning to `Cc1ccc(C)c(NS(=O)(=O)c2cc(C(=O)Nc3ccccc3-c3ccccc3)ccc2C)c1`, the IC50 in [16] is > 35 µM (not active); in assay [17] it was 0.298 µM (active).

`CCOc1ccccc1-c1nc(-c2ccc(NC(=O)c3ccc(Br)o3)cc2)no1`: the EC50 on Estrogen receptor was 12.7 µM (active).

For the compound `Cc1cc(C(=O)OCC(=O)c2c(N)n(C)c(=O)n(C)c2=O)c(C)n1-c1ccccc1`, the IC50 in assay [18] is > 111 µM (not active); in assay [19], 13.1 µM (not active).

As to `CC(C)NC(=O)/C(C#N)=C\c1ccc(N(C)C)o1`, the EC50 in assay [20] was > 100 µM (active).

In the case of `C=CCn1c(COc2ccc3c(c2)CCCC3)nnc1SCC(=O)Nc1cccc(SC)c1`, in assay [21], the IC50 is > 100 µM (active).

In the case of `Cn1cnnc1SCc1ccc(C(=O)N/N=C(\CCC(=O)O)c2ccc(C(C)(C)C)cc2)cc1`, the IC50 in assay [22] and in assay [23] was > 50 µM (not active) throughout. Moreover, the AC50 in assay [24] is 0.755 µM (active).

With `COc1cc(-c2nc(-c3ccccc3)c(-c3ccccc3)[nH]2)cc(OC)c1O`, the IC50 at NADPH oxidase 1 is 0.517 µM (active).
